Data: paper doi:10.1101/2021.06.14.448287v1, “Plasmodium falciparum protein Pfs16 is a target for transmission-blocking antimalarial drug development” (biorxiv, 2021)

Legend:
[1] = tested on: T1, P. falciparum NF54 stage V male gametocytes; test: microbe, parasite or virus in culture; parameters: male gamete formation assay (DGFA format), inhibition of exflagellation of stage V gametocytes; settings: Plasmodium falciparum, NF54, male gamete formation
T1 construct: NF54
Description: Yahiya et al. 2021 Supplement Page 26 of 27 345 IC50 determination by male gamete formation assay 346 The male gamete formation assay (MGFA) was adapted from the previously described dual gamete formation assay (DGFA)3 347 to identify male gamete targeted activity. Briefly, compounds 348 were dispensed into 384-well plates using the HP D300 Digital Dispenser in serial dilutions. Single 349 point controls, a DMSO negative control (0.25% final assay volume) and 20 µM DDD01028076 350 positive control, were included across the plate. Maintaining RT, 10 µl ookinete medium was 351 dispensed into each well, followed by addition of 50 µl of stage V NF54 gametocyte culture (day 14 352 post-induction and onwards). […] Plates were then immediately incubated at 4°C 354 for 4 minutes, followed by 28°C for 5 minutes. Table 1. DDD01035881 and derivatives Activity of DDD01035881 and structural analogues as determined in a structure activity relationship study. IC50s depicted represent the inhibition of male gamete viability as determined by the male gamete formation format of the DGFA. Values are expressed as an average ± SEM of 3-8 biological replicates, ≥ 2 technical replicates.[15]

Pfs16 [2] = molecular target: T2, Pfs16 (Plasmodium falciparum, UniProt Q6ZMA7); test: photoaffinity labelling, click capture, pulldown, TMT nLC-MS/MS, in-gel fluorescence and immunoblot; type: cell-based; settings: live stage V gametocytes, 2.5-10 uM, 254 nm UV; covalent after irradiation
T2 construct: native full-length protein in stage V gametocytes or their Triton X-100 lysate; 157 residues, 16 kDa, two transmembrane domains
T2 sequence (Q6ZMA7 26-157): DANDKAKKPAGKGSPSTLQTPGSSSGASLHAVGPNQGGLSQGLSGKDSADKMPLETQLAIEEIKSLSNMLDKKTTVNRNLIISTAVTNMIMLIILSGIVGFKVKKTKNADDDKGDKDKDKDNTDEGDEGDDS

Pfs16 [3] = molecular target: T2, Pfs16; test: CETSA melt curve with immunoblot; type: biochemical; settings: activated stage V gametocyte lysate, 100 uM compound, 1% Triton X-100, pH 7.5; also isothermal dose response at 78.4 °C

Structure (SMILES) | IC50 [1] | photoaffinity labelling, click capture, pulldown, TMT nLC-MS/MS, in-gel fluoresc (Pfs16 [2]) | Tm shift (Pfs16 [3])
CCCCn1cc(-c2ccc3c(c2)C(O)(CNS(=O)(=O)c2cccc(Br)c2)CCO3)nn1 (stereo not shown) [compound 9, 9] | > 25000 nM | – | –
O=S(=O)(NCC1(O)CCOc2ccc(Br)cc21)c1cccc(Br)c1 (stereo not shown) [compound 1, parent molecule 1] | 785 ± 48 nM | – | –
CN(CC1(O)CCOc2ccccc21)S(=O)(=O)c1cccc(Br)c1 (stereo not shown) [compound 10, 10] | > 10000 nM | – | –
O=S(=O)(NCC1(O)CCOc2ccccc21)c1ccccc1Br (stereo not shown) [DDD01028076] | 367 ± 60 nM | – | –
C=CCOc1ccc2c(c1)C(O)(CNS(=O)(=O)c1cccc(Br)c1)CCO2 (stereo not shown) [compound 7, 7] | > 25000 nM | – | –
C#Cc1ccc2c(c1)C(O)(CNS(=O)(=O)c1cccc(Br)c1)CCO2 (stereo not shown) [compound 3, 3] | 370 ± 79 nM | – | –
C#Cc1ccc2c(c1)C(O)(CNS(=O)(=O)c1cccc(N=[N+]=[N-])c1)CCO2 (stereo not shown) [compound 2, probe 2] | 3980 ± 211 nM | a dose-dependent pulldown of Pfs16 was clearly observed | –
C#Cc1cccc(S(=O)(=O)NCC2(O)CCOc3ccccc32)c1 (stereo not shown) [compound 4, 4] | > 1000 nM | – | –
C#Cc1ccc2c(c1)C(O)(CN(CCC1(C)N=N1)S(=O)(=O)c1cccc(Br)c1)CCO2 (stereo not shown) [compound 5, 5] | > 25000 nM | – | –
O=S(=O)(NCC1(O)CCOc2ccc(O)cc21)c1cccc(Br)c1 (stereo not shown) [compound 6, 6] | > 11000 nM | – | –
O=S(=O)(NCC1(O)CCOc2ccccc21)c1ccc(Br)s1 (stereo not shown) [DDD01035881] | 292 ± 76 nM | – | DDD01035881 treatment clearly resulted in a positive shift in the Pfs16 melting curve
